These results are taken from US20150309031A2, “COMPOSITIONS AND METHODS FOR PROGNOSIS AND TREATMENT OF CANCER” (NOVAZOI THERANOSTICS, priority 2013, published 2015).

Common to all, as to assay type: cell-based
For one experiment, the system named is 231, HeLa and PC3 cells. The experiment is described as follows: Centrosome amplification (CA) by microscopy, all cancer cell lines tested. The procedure:
(§1) Consequently, CA was assessed in cultures treated with different concentrations of declustering drugs for 6, 12, 18, or 24 h and untreated controls via microscopy. Centrosomes were identified by γ-tubulin and centrin-2 colocalization at discrete foci. […] The peak percent CA detected over 24 h is shown in FIG. 6 (only statistically significant (P<0.05) increases over control values are represented in the Figures). Representative confocal micrographs of CA in interphase and mitotic cells, both control and drug treated, are depicted in FIG. 7. No significant correlations between the degree of CA (FIG. 5A) and the expression levels of PLK4, Cyclin E, and Aurora A were found (FIG. 4).
To better understand the “potency” of drug-induced CA with time, the average fold change in CA over controls over 24 h was assessed (FIG. 5A), whereby the extent of CA across time points (i.e., 6, 12, 18, and 24 h) was averaged and then divided by the extent of CA in control (i.e., 0 h). All of the drugs at least doubled the peak extent of CA in all cell lines tested (FIG. 5A), although the final extent of CA could be small or large in magnitude depending on the initial centrosomal burden as shown in FIG. 4. […] The extent of CA was less in interphase cells, with maximum values of 31% and 87% for 10 and 25 μM RBN (FIG. 6A). […]

The test system of a further experiment is PC3 cells. The experiment is described as follows: subG1 (hypodiploid) fraction by flow cytometry, PC3 cells. The procedure: (§2) Trypsinized cells were resuspended in PBS at 10^6 cells/ml. Cells were then fixed by addition of ice-cold 70% ethanol. Ethanol-fixed cells were kept overnight at 4° C. before staining. Cells were pelleted and washed twice with PBS. Cell pellets were incubated for an hour at room temperature with mouse anti-MPM-2 antibody (Millipore, Mass., USA), followed by 1 h incubation with Alexa-488 anti-mouse secondary antibody (Life Technologies, NY, USA). Finally cells were washed, pelleted and resuspended in propidium iodide-containing isotonic buffer (0.1 mg/mL) and 0.5% Triton X-100. Cell cycle distribution was determined by flow cytometry using an LSR Fortessa Flow cytometer (BD Biosciences, CA, USA) and analyzed using Flowjo software (Tree Star, OR, USA). […] The duration, highest degree, and rapidity of onset of MA varied between drugs, drug concentrations, and cell lines (FIGS. 2A, 2B). In general, the maximum MA achieved was less pronounced in Nos- and PJ-treated cells (FIGS. 2A, 2B). Drug-induced onset of MA was corroborated by substantial increases in cyclin B1 levels in all cell lines (FIG. 2C). […] Instances where the subG1 fraction was elevated without cleaved caspase-3 may either represent caspase-independent cell death or the presence of hypodiploid cells whose fate is unclear.

For experiment [1], the system named is adult human dermal fibroblasts (HDF). The experiment is described as follows: subG1 (hypodiploid) fraction by flow cytometry, HDFs.
The next experiment has as its system HeLa cells. The experiment is described as follows: subG1 (hypodiploid) fraction by flow cytometry, HeLa cells. The procedure: as §2
In general terms: A flow cytometer gives signals particle by particle.

A further experiment deals with MCF10A cells. The experiment is described as follows: Centrosome amplification (CA) by microscopy, MCF10A cells. Conditions: interphase and mitotic cells, over 24 h. The procedure: as §1
To determine whether the CA-inducing activity of declustering drugs is restricted to cancer cells, two non-malignant cell lines, mammary fibrocystic (MCF10A) cells and adult human dermal fibroblasts were treated with these drugs. Neither one of RBN, GF or PJ induced CA or cell death (Table 8) in these cell lines. […] In comparison, 10 and 25 μM RBN increased peak CA over controls in interphase cells (p<0.001 and p=0.001, respectively), with the lower concentration dramatically augmenting peak CA to 56% of cells versus 15% for the higher dose (FIG. 9B). Only 10 but not 25 μM RBN increased the extent of CA in mitotic cells, and this upregulation was only slight (10%, p=0.041).

For another experiment, the system named is 231 cells. The experiment is described as follows: Centrosome amplification (CA) by microscopy, 231 cells. The settings on record: for maximum extent of CA in mitotic cells: over 24 h. The procedure:
Consequently, CA was assessed in cultures treated with different concentrations of declustering drugs for 6, 12, 18, or 24 h and untreated controls via microscopy. […] The peak percent CA detected over 24 h is shown in FIG. 6 (only statistically significant (P<0.05) increases over control values are represented in the Figures). Representative confocal micrographs of CA in interphase and mitotic cells, both control and drug treated, are depicted in FIG. 7. […] To better understand the “potency” of drug-induced CA with time, the average fold change in CA over controls over 24 h was assessed (FIG. 5A), whereby the extent of CA across time points (i.e., 6, 12, 18, and 24 h) was averaged and then divided by the extent of CA in control (i.e., 0 h). […] For Nos and BN, there was no major difference in CA levels in interphase versus mitotic cells.

Experiment [2] has as its system mammary fibrocystic (MCF10A) cells. The experiment is described as follows: subG1 (hypodiploid) fraction by flow cytometry, MCF10A cells. Conditions: for Peak subG1 percent over 48 h: MCF10A.

With reduced bromonoscapine [RBN], the “induction of CA” value in the experiment on 231, HeLa and PC3 cells is given as “induced CA in all three cell lines”. Besides, the “Peak subG1 percent over 48 h” value in the experiment on PC3 cells (10 μM) worked out at 80.7%; in the experiment on PC3 cells (25 μM), 73.0%; in experiment [1] (10 μM), 35.9%; in experiment [1] (25 μM), 39.9%; in the experiment with HeLa cells (10 μM) it was 54.1%; with HeLa cells (25 μM) it was 75.6%. Further, the “Peak subG1 percent over 48 h” value in experiment [2] (10 μM) was found to be 36.4%; in experiment [2] (25 μM) it was 44.0%. The “maximum subG1 fraction relative to control” value is reported as 8 × control in the experiment on PC3 cells (10 μM) and 9 × control in the experiment on HeLa cells (10 μM). Besides, the “change of CA over control levels (in words)” value with MCF10A cells is “significantly increased the peak extent of CA in interphase and mitotic MCF10A cells”. Also, the “change of peak CA extent over control” value in the experiment with 231 cells (25 μM) was “only slightly more than doubled the peak CA extent”. In the experiment with 231 cells (25 μM), the “final extent of CA” value is on record as “around 90%”. The “maximum extent of CA in interphase cells” value was 31% in the experiment on 231 cells (10 μM) and 87% in the experiment on 231 cells (25 μM). Also, the “fold increase of CA over controls, mitotic cells” value in the experiment with 231 cells (10 μM) is on record as ~2.5 fold; with 231 cells (25 μM), ~2.0 fold. In addition, the “maximum extent of CA in mitotic cells” value is given as 56% in the experiment on 231 cells (10 μM) and 96% in the experiment with 231 cells (25 μM). In experiment [2] (MCF10A cells), the “change of peak subG1 percent compared to controls (in words)” value is reported as “did increase peak SubG1 in MCF10A cells compared to controls”.
